In article PMC5652740, “Inhibition of HIV-1 infection in humanized mice and metabolic stability of protein phosphatase-1-targeting small molecule 1E7-03” (Oncotarget, 2017):

Tests used:
HIV-1 integration = assay: HIV-1 integration, Alu-Gag real-time PCR in CEM T cells; assay type: cell-based; settings: 10 μM, DNA 6 hrs post infection, in words
Procedure: To assay HIV-1 integration, CEM T cells were infected with HIV-1-LUC-G virus and treated with 10 μM 1E7-03 or DMSO. Total DNA was extracted from cells using lysis buffer (10 mM Tris-HCl pH 8.0, 10 mM EDTA, 5 mM NaCl, 200 μg/ml proteinase K). The cells were lysed for 20-30 min at room temperature and proteinase K was inactivated by heating to 95°C for 5 min. For the real-time PCR analysis, 100 ng DNA was amplified using Roche Light Cycler 480 (Roche Diagnostics) and SYBR Green1 Master mix (Roche Diagnostics). PCR was carried with initial preincubation for 5 min at 45°C and then for 3 in at 95°C followed by 45 cycles of denaturation at 95°C for 15 sec, annealing and extension at 60°C for 45 sec, and final extension at 72°C for 10 sec. Integrated HIV-1 DNA was amplified using the following primers: Alu forward 5'-[…]-3', and Gag reverse 5'-[…]-3'.

[1] = 1E7-03 degradation in monkey plasma; assay type: in vitro ADME; settings: 37°C
Procedure: (§1) 1E7-03 dissolved in DMSO (10 mM stock solution) was mixed with mouse plasma (Sigma-Aldrich), guinea pig plasma (Sigma-Aldrich), ferret plasma (BioreclamationIVT), monkey plasma (courtesy of Binhua Ling, PhD, Tulane University) and human plasma (collected from heathy volunteer by the Center for Sickle Cell Disease at Howard University) to the final concentration of 10 μM and incubated at 37°C. Aliquots were collected at different time points for up to 24 hrs. The resulting sample (60 μl) was mixed with 240 μl of cold acetone, vortexed for 2 min, kept at –20°C for 30 min, and then the precipitated protein was removed by centrifugation at 13,000 × g for 5 min. The supernatant was transferred to a clean test tube and evaporated to dryness using a SpeedVac concentrator. The residue reconstituted in 60 μl of acetonitrile for LC/FT-MS analysis. All experiments were run parallel in triplicates.

[2] = 1E7-03 degradation in ferret plasma; assay type: in vitro ADME; settings: 37°C
Procedure: as §1

[3] = tested on: RSP13 and β-actin mRNA in CEM T cells; assay: Cellular transcription, RSP13 and β-actin mRNA by real-time RT-PCR; assay type: cell-based; settings: 10 μM, in words
Procedure: For quantitative analysis of HIV-1 RNA, CEM T cells were infected with HIV-1-LUC-G virus. Cells were treated with 10 μM 1E7-03, 10 μM DP1, 10 μM DP3, 5 μM AZT or 5 μM 3TC and control cells were untreated or treated with DMSO. Total RNA was isolated using Trizol Reagent (Invitrogen, Carlsbad, CA) according to the manufacturer's protocol. Total RNA (100 ng) was reverse transcribed to cDNA using Superscript™ RT-PCR kit (Invitrogen, Carlsbad, CA). Hexamers and oligo-dT were used as primers. For real-time PCR analysis, cDNA was amplified using Roche LightCycler 480 (Roche Diagnostics) and SYBR Green1 Master mix (Roche Diagnostics). PCR was run for 45 cycles and each cycle included denaturation at 95°C for 10 seconds, annealing at 60°C for 10 seconds, and extension at 72°C for 10 seconds. Quantification of env and gag was carried using 18S RNA as a normalization standard. Quantification of housekeeping genes, β-actin and RSP13 was carried relative to 18S RNA. Mean Cp values were determined and ΔΔCt method was used to calculate relative expression levels. Unpaired t-test was used to test statistical significance.
The following primer sequences were used: env, forward - […], reverse-[…]; gag, forward- […], reverse- […]; β-actin, forward- […], reverse-[…]; RSP13, forward- […], reverse- […]; and 18SrRNA, forward- […], reverse- […].

CCNC(=O)NC(=O)C(C)OC(=O)c1c2c(nc3ccccc13)/C(=C/c1ccc(OC)c(OC)c1)CC2 (centres unmarked) [1E7-03]
effect on HIV-1 integration (HIV-1 integration): did not show any significant effect | remaining at 24 h, 10 µM [1]: > 50% | remaining at 24 h, 10 µM [2]: > 50% | RSP13 mRNA expression [3]: slight induction | β-actin mRNA expression [3]: slight induction
